In US8557984B2, “Imidazo [4, 5-C] quinoline derivatives as bromodomain inhibitors” (GlaxoSmithKline LLC, priority 2009, dated 2013):

Tests used:
IL-6 = assay: Measurement of LPS Induced IL-6 Secretion from Whole Blood; format: cell-based; conditions: LPS 200 ng/ml, 24 hours, read-out: pIC50 (IL-6 levels) (converted)
Protocol: (§1) Activation of monocytic cells by agonists of toll-like receptors such as bacterial lipopolysaccharide (LPS) results in production of key inflammatory mediators including IL-6. Such pathways are widely considered to be central to the pathophysiology of a range of auto-immune and inflammatory disorders.
Compounds to be tested are diluted to give a range of appropriate concentrations of which 1 ul of the diluted stocks is added to a 96 well plate. Following addition of whole blood (130 ul) the plates are incubated at 37 degrees (5% CO2) for 30 min before the addition of 10 ul of 2.8 ug/ml LPS, diluted in complete RPMI 1640 (final concentration=200 ng/ml), to give a total volume of 140 ul per well. After further incubation for 24 hours at 37 degrees, 140 ul of PBS are added to each well. The plates are sealed, shaken for 10 minutes and then centrifuged (2500 rpm×10 min). 100 ul of the supernatant are removed and IL-6 levels assayed by immunoassay (typically by MesoScale Discovery technology) either immediately or following storage at −20 degrees. Concentration response curves for each compound was generated from the data and an IC50 value was calculated

heme cell lines = assay: Oncology Cell Growth Assay, heme cell lines; format: cell-based; conditions: Homo sapiens, 72 hours, CellTiter-Glo, read-out: gIC50
Protocol: (§2) Human cell lines (n=33 comprising 15 heme cell lines, […] and 4 other cell lines) were cultured in RPMI-1640 containing 10% fetal bovine serum, 1000 viable cells per well were plated in 384-well black flat bottom polystyrene plates (Greiner #781086) in 48 μl of culture media. All plates were placed at 5% CO2, 37° C. overnight. The following day one plate was harvested with CellTiter-Glo (CTG, Promega #G7573) for a time equal to 0 (T0) measurement and compound (20 point titration from 14.7 uM to 7 pM) was added to the remaining plates. The final concentration of DMSO in all wells was 0.15%. Cells were incubated for 72 hours or the indicated time and each plate was developed with CellTiter-Glo reagent using a volume equivalent to the cell culture volume in the wells. Plates were shaken for approximately 2 minutes and chemiluminescent signal was read on the Analyst GT (Molecular Devices) or EnVision Plate Reader (Perkin Elmer).
(§3) Results were expressed as a percent of the T0 and plotted against the compound concentration. […] The Ymin-T0 value is determined by subtracting the T0 value (100%) from the Ymin value (%) determined from the fit of the concentration response curve. […]

breast cell lines = assay: Oncology Cell Growth Assay, breast cell lines; format: cell-based; conditions: Homo sapiens, 72 hours, CellTiter-Glo, read-out: gIC50
Protocol: as §2, §3

TNFα = assay: LPS Stimulated Whole Blood Measuring TNFα Levels Assay; format: cell-based; conditions: LPS 200 ng/ml, 24 h, read-out: pIC50 (TNFα levels) (converted)
Protocol: as §1, with “TNFα.” for “IL-6.”
Compounds to be tested are diluted to give a range of appropriate concentrations and 1 ul of the dilution stocks is added to wells of a 96 plate. Following addition of whole blood (130 ul) the plates are incubated at 37 degrees (5% CO2) for 30 min before the addition of 10 ul of 2.8 ug/ml LPS, diluted in complete RPMI 1640 (final concentration=200 ng/ml), to give a total volume of […] per well. After further incubation for 24 h at 37 degrees, 140 ul of PBS are added to each well. The plates are sealed, shaken for 10 minutes and then centrifuged (2500 rpm×10 min). 100 ul of the supernatant are removed and TNFα levels assayed by immunoassay (typically by MesoScale Discovery technology) either immediately or following storage at −20 degrees. Dose response curves for each compound was generated from the data and an IC50 value was calculated.

[1] = test system: Human cell lines (n=33 comprising 15 heme cell lines, 14 breast cell lines and 4 other cell lines); assay: Oncology Cell Growth Assay, all cell lines; format: cell-based; conditions: across all cell lines, 72 hours, CellTiter-Glo, read-out: gIC50
Protocol: as §2, §3

Balb/c male mice = assay: In Vivo Mouse Endotoxemia Model; conditions: 15 mg/kg LPS i.p., compound 10 mg/kg intravenously ninety minutes later; for Numbers of animals surviving at 4 days (summed across multiple repeat experiments): survivors/total
Excerpt: High doses of Endotoxin (bacterial lipopolysaccharide) administered to animals produce a profound shock syndrome including a strong inflammatory response, dysregulation of cardiovascular function, organ failure and ultimately mortality. This pattern of response is very similar to human sepsis and septic shock, where the body's response to a significant bacterial infection can be similarly life threatening.
To test the compounds for use in the invention groups of eight Balb/c male mice were given a lethal dose of 15 mg/kg LPS by intraperitoneal injection. Ninety minutes later, animals were dosed intravenously with vehicle (20% cyclodextrin 1% ethanol in apyrogen water) or compound (10 mg/kg). The survival of animals was monitored at 4 days.
Numbers of animals surviving at 4 days (summed across multiple repeat experiments)

Row | IC50 (IL-6) | IC50 (TNFα) | Structure (SMILES) | further results
1 | – | ≤ 3.16 µM | COc1cc2c(cc1-c1c(C)noc1C)ncc1[nH]c(=O)n(Cc3ccccc3)c12 [Example 15] | –
2 | ≤ 3.16 µM | – | COc1cc2c(cc1-c1c(C)noc1C)ncc1nc(C3CCOCC3)n([C@H](C)c3ccccn3)c12 (single isomer, unassigned) [Example 45] | –
3 | – | ≤ 3.16 µM | COc1cc2c(cc1-c1c(C)noc1C)ncc1[nH]c(=O)n(-c3ccccc3OC(F)(F)F)c12 [Example 12, 7-(3,5-dimethyl-4-isoxazolyl)-8-(methoxy)-1-{2-[(trifluoromethyl)oxy]phenyl}-1,3-dihydro-2H-imidazo[4,5-c]quinolin-2-one] | –
4 | – | ≤ 3.16 µM | COc1cc2c(cc1-c1c(C)noc1C)ncc1nc(C3CCOCC3)n(Cc3ccccn3)c12 [Example 27, 7-(3,5-dimethyl-4-isoxazolyl)-8-(methoxy)-1-(2-pyridinylmethyl)-2-(tetrahydro-2H-pyran-4-yl)-1H-imidazo[4,5-c]quinoline] | –

Continued, molecule first:

Row | Structure (SMILES) | IC50 (IL-6) | IC50 (TNFα) | further results
5 | COCCn1c(=O)n([C@H](C)c2ccccn2)c2c3cc(OC)c(-c4c(C)noc4C)cc3ncc21 [Example 37, 7-(3,5-dimethyl-4-isoxazolyl)-8-(methyloxy)-3-[2-(methyloxy)ethyl]-1-[(1R)-1-(2-pyridinyl)ethyl]-1,3-dihydro-2H-imidazo[4,5-c]quinolin-2-one] | ≤ 3.16 µM | – | –
6 | COc1cc2c(cc1-c1c(C)noc1C)ncc1[nH]c(=O)n([C@H](C)c3ccccn3)c12 [Example 11, 7-(3,5-dimethyl-4-isoxazolyl)-8-(methoxy)-1-[(1R)-1-(2-pyridinyl)ethyl]-1,3-dihydro-2H-imidazo[4,5-c]quinolin-2-one] | ≤ 3.16 µM | ≤ 3.16 µM | IC50 (heme cell lines): 0.118 to 1.04 µM; IC50 (breast cell lines): 0.432 to 11.1 µM; IC50 [1]: 0.118 to 11.1 µM; Animals surviving at 4 days, percent (Balb/c male mice): 83%; Numbers of animals surviving at 4 days (summed across multiple repeat experiments) (Balb/c male mice): 55/66
7 | COc1cc2c(cc1-c1c(C)noc1C)ncc1[nH]c(=O)n(C(C)c3cnn(C)c3)c12 (stereo not drawn) [Example 40, 7-(3,5-dimethyl-4-isoxazolyl)-8-(methyloxy)-1-[1-(1-methyl-1H-pyrazol-4-yl)ethyl]-1,3-dihydro-2H-imidazo[4,5-c]quinolin-2-one] | ≤ 3.16 µM | – | –
8 | COCc1nc2cnc3cc(-c4c(C)noc4C)c(OC)cc3c2n1C(C)c1ccccn1 (stereo not drawn) [Example 51, 7-(3,5-dimethyl-4-isoxazolyl)-8-(methyloxy)-2-[(methyloxy)methyl]-1-[1-(2-pyridinyl)ethyl]-1H-imidazo[4,5-c]quinoline] | ≤ 3.16 µM | – | –
9 | COc1cc2c(cc1-c1c(C)noc1C)ncc1[nH]c(=O)n([C@@H](C)c3ccccn3)c12 (single isomer, unassigned) [Example 39] | ≤ 3.16 µM | – | –
10 | COc1cc2c(cc1-c1c(C)noc1C)ncc1nc(C3CCOCC3)n([C@H](C)c3ccccc3)c12 [Example 31, 7-(3,5-dimethyl-4-isoxazolyl)-8-(methoxy)-1-[(1R)-1-phenylethyl]-2-(tetrahydro-2H-pyran-4-yl)-1H-imidazo[4,5-c]quinoline] | – | ≤ 3.16 µM | Animals surviving at 4 days, percent (Balb/c male mice): 38%; Numbers of animals surviving at 4 days (summed across multiple repeat experiments) (Balb/c male mice): 9/24
11 | COc1cc2c(cc1-c1c(C)n[nH]c1C)ncc1nc(C3CCOCC3)n([C@H](C)c3ccccc3)c12 [Example 108, 7-(3,5-dimethyl-1H-pyrazol-4-yl)-8-(methyloxy)-1-[(1R)-1-phenylethyl]-2-(tetrahydro-2H-pyran-4-yl)-1H-imidazo[4,5-c]quinoline] | – | ≤ 3.16 µM | –
12 | Cc1noc(C)c1-c1ccc2c(c1)ncc1ncn(-c3ccccc3C(C)(C)C)c12 [Example 18, 1-[2-(tert-butyl)phenyl]-7-(3,5-dimethyl-4-isoxazolyl)-1H-imidazo[4,5-c]quinoline] | – | – | melting point: 216 °C
13 | COc1nc2c(cc1-c1c(C)noc1C)ncc1[nH]c(=O)n(-c3ccccc3OC(F)(F)F)c12 [Example 126, 7-(3,5-dimethyl-4-isoxazolyl)-8-(methyloxy)-1-{2-[(trifluoromethyl)oxy]phenyl}-1,3-dihydro-2H-imidazo[4,5-c]-1,5-naphthyridin-2-one] | – | ≤ 3.16 µM | –
